# Assay results reported in US10011877B2, “Treatment of bladder cancer to overcome chemoresistance” (Genedia Biotech Co., Ltd., priority 2015, dated 2018).
# Columns and labels:
# [1] = test system: 5637 cell-derived tumor xenograft; experiment: 5637-derived tumor xenografts in nude mice, tumor weight day 25; assay type: in vivo, BALB/c male nude mice; details: 5637 tumors, Pa 45 ug/mouse intraperitoneal once in 2 days
# Excerpt: (§1) Animal experiments were undertaken in accordance with the National Institutes of Health Guide for the Care and Use of Laboratory Animals. BALB/c male nude mice aged of 8-12 weeks were used for this study. 5637 or H-bc cells were embedded in BD Matrigel Matrix (Becton, Dickinson, Franklin Lakes, N.J., USA) and subcutaneously injected into the four sites at the back of mice as following: 1.7×10^7 cells/site for 5637, 0.7×10^7 cells/site for H-bc, 4 sites/mouse, 6 mice for 5637, 6 mice for H-bc, respectively. From the fourth day after cell injection, all 5637-generated tumors were intratumorally injected with 2 nM miR-193a-3p agomiR or miR-193a-5p agomiR, while H-bc-generated tumors were injected with 4 nM miR-193a-3p/-5p/Mock antagomiR/PBS in a similar manner. From the sixth day after cell injection, three mice from 5637 and three from H-bc intraperitoneally received Pa (45 ug/mouse) once in 2 days. The remaining six mice (three from 5637 and three from H-bc) received PBS as a mock treatment control. Mice were humanely killed on day 25, and the tumors were weighed and photographed. The tumor weight was described as the mean±S.D.
# (§2) Animal experiments were undertaken in accordance with the National Institutes of Health Guide for the Care and Use of Laboratory Animals. BALB/c male nude mice of 8-12 weeks of age were used for this study. […]
# [2] = test system: H-bc-derived tumor xenografts; experiment: H-bc-derived tumor xenografts in nude mice, tumor weight day 25; assay type: in vivo, BALB/c male nude mice; details: H-bc tumors, Pa 45 ug/mouse intraperitoneal once in 2 days
# Excerpt: as §1, §2
structure (smiles),measurement,setting,value
"CC(=O)O[C@H]1C(=O)[C@@]2(C)[C@H]([C@H](OC(=O)c3ccccc3)[C@]3(O)C[C@H](OC(=O)[C@H](O)[C@@H](NC(=O)c4ccccc4)c4ccccc4)C(C)=C1C3(C)C)[C@]1(OC(C)=O)CO[C@@H]1C[C@@H]2O [Pacilitaxol, Paclitaxel]",tumor weight ratio of the Pa treated over PBS treated,[1],0.283
same,tumor weight ratio of the Pa treated over PBS treated,[2],0.40
